Converted amounts (≈) assume the structure as drawn.

Series [1] is described as follows: solubility measurement during crystallisation of crude compound [1]. It is filed as physicochemical. As to conditions: for T=0 solubility measurement: 5 volumes. Here is the method:
The hot mixture was clarified through a heated large nylon syringe filter (0.44 μm) into a Mya4 100 ml process vessel with overhead U-shape agitation at 200 RPM pre-heated to 95° C. (target internal temperature=80-85° C.). The dark brown solution was cooled to 74.5° C. over 15 minutes and seeded with crystals of compound [1] (Form A) (ca. 6 mg 0.1% wt). […] Noticeable amounts of off-white precipitate were observed ca. 61-62° C. Following cooling, the mixture was held at 0° C. for ca. 3 hours. The solids were isolated via filtration, with no evidence of fouling of the vessel or agitator. The vessel and filter cake were washed with the isolated filtrates and air dried for 15 minutes before collection of the off-white solids and dark brown liquors. The solids were collected and dried in vacuo at 45° C. for ca. 4 hours to yield the title compound. 4.88 g of crystalline Compound [1] was successfully isolated in 80.1% yield. The maximum theoretical recovery based upon measured solubility pre-isolation at 0° C. was 94.2%.
Crude Compound [1] (6.00 g) was suspended ethyl acetate (30 ml, 5 volumes) in a suitable glass vessel under N2 fitted with reflux condenser and stirrer bead agitation at 420 RPM. The beige suspension was heated to 75° C. (target 70-75° C.) upon which full dissolution to a dark brown solution was achieved during heating at ca. 68° C. The hot mixture was clarified through a heated large nylon syringe filter (0.44 μm) into a Mya4 100 ml process vessel with overhead U-shape agitation at 200 RPM pre-heated to 85° C. (target internal temperature=70-75° C.). The dark brown solution was cooled to 65.2° C. over 15 minutes (target 62.5-67.5° C.) and seeded with crystals of compound [1] (Form A) (ca. 6 mg 0.1% wt). Cooling was continued to 59.8° C. […] The solids were isolated via filtration. The vessel and filter cake were washed with the isolated filtrates and air dried for 12 minutes before collection of the off-white solids and dark brown liquors. The solids were collected and dried in vacuo at 45° C. for ca. 4 hours to yield the title compound. 4.59 g of crystalline Compound [1] was successfully isolated in 76.4% yield. The maximum theoretical recovery based upon measured solubility pre-isolation at 0° C. was 90.6%.
Crude Compound [1] (5.96 g) was suspended n-Butyl acetate (30 ml, 5 volumes) in a suitable glass vessel under N2 fitted with reflux condenser and stirrer bead agitation at 420 RPM. The beige suspension was heated to 85° C. (target 80-85° C.) upon which full dissolution to a dark brown solution was achieved during heating at ca. 82° C. The hot mixture was clarified through a heated large nylon syringe filter (0.44 μm) into a Mya4 100 ml process vessel with overhead U-shape agitation at 200 RPM pre-heated to 95° C. (target internal temperature=80-85° C.). The dark brown solution was cooled to 74.6° C. over 15 minutes (target 72.5-77.5° C.) and seeded with crystals of compound [1] (Form A) (ca. 6 mg 0.1% wt). Cooling was continued to 69.5° C. […] The solids were isolated via filtration. The vessel and filter cake were washed with the isolated filtrates and air dried for 10 minutes before collection of the grey solids and dark brown liquors. The solids were collected and dried in vacuo at 45° C. for ca. 4 hours to yield the title compound. 4.64 g of crystalline Compound [1] was successfully isolated in 77.9% yield. The maximum theoretical recovery based upon measured solubility pre-isolation at 0° C. was 91.7%.

Series [2] concerns CDK. As to conditions: statement in background section; cited from earlier work.
The test system of series [3] is range of different cell lines. The settings on record: statement in background section; cited from earlier work.

With `CC[C@H](Nc1nc(NCc2cnc(C)cc2C)c2ncn(C(C)C)c2n1)[C@@H](C)O` [Compound [1]], the “T=0 solubility measurement” value in series [1] (ethyl acetate, after seeding at 59.8° C.) came to 184.35 mg/mL; in series [1] (isopropyl acetate, after seeding at 70.1° C.), 189.83 mg/mL; in series [1] (n-butyl acetate, after seeding at 69.5° C.), 175.84 mg/mL. Further, the solubility was found to be 18.84 mg/mL (≈ 47.4 mM) in series [1] (ethyl acetate, held at 0° C. for ca. 5 hours (90.06% development)) and 16.61 mg/mL (≈ 41.8 mM) in series [1] (n-butyl acetate, held at 0° C. for ca. 3 hours (91.7% development)). Also, in series [2], the CDK inhibitory activity entry is given as “potent CDK inhibitory activity”. Further, the “potency in cellular toxicity studies” value in series [3] was “surprisingly high potency”.

A word on the solubility: it is how much of the substance goes into solution per volume.
